Consider three compounds from patent US20070087975A1, “Compound useful for the prevention and treatment of left ventricular hypertrophy in dialysed patients” (SIGMA-TAU INDUSTRIE FARMACEUTICHE RIUNITE SPA, priority 2005, published 2007).

Assay [1] deals with left ventricular (LV) function. The settings on record: 58 patients with primary glomerulonephritis and moderate chronic renal failure; cited from earlier work.
The subject of assay [2] is left ventricular hypertrophy (LVH) in ESRD dialysed patients. The assay is described as follows: Clinical trial of propionyl L-carnitine in ESRD patients on dialysis (multicentre, randomized, double-blind, placebo-controlled, echocardiography). Format: in vivo, human. The settings on record: 26 weeks. The method, then: A clinical trial (multicentre, parallel, randomized, double-blind, dose- ranging placebo-controlled study in 300 patients) useful for evaluating both preventive and/or curative effect of the treatment with propionyl L-carnitine (3 and 6 mg/kg given intravenously three times a week at the end of the hemodyalisis session for 26 weeks) has been done.
1) male or female out-patients aged >18 years, suffering from ESRD on bicarbonate dialysis three times a week;
2) patients who have reached a certain degree of dialytic stability (at least since six months on dialysis), so that the variability due to the progressive patient adaptation of the therapeutic treatment is controlled, presenting no clinical signs of hydric overload at the end of dialysis;
3) patients showing a degree of cardiac deterioration defined as inter-ventricular septum and left ventricular wall thickness ≧11 mm;
4) patients with left ventricular ejection fraction >40%;
During the whole Randomised Treatment Period, all drugs considered indispensable for the treatment of the disease under study could be administrated providing that they were administered for at least three months prior to patient's enrollment, and that the dosage of those drugs remained stable throughout the whole treatment period. […]

Assay [3] has as its system decompensated eccentric hypertrophy produced by myocardial infarction. The following applies: rats without renal damages; similar to ACE inhibition; cited from earlier work.

Consider `C[C@H](CS)C(=O)N1CCC[C@H]1C(=O)O` [captopril], for which, in assay [1], the “LV ejection fraction, early and late transmitral flow velocities and early to late LV inflow velocities ratio” value was “not significantly affected”.
Turning to `CCOC(=O)[C@H](CCc1ccccc1)N[C@@H](C)C(=O)N1CCC[C@H]1C(=O)O` [enalapril], the “LV ejection fraction, early and late transmitral flow velocities and early to late LV inflow velocities ratio” value in assay [1] is on record as “not significantly affected”.
Turning to `CCC(=O)O[C@H](CC(=O)[O-])C[N+](C)(C)C` [propionyl L-carnitine], the “effect on the signs of LVH, signs (a)-(c): septum and posterior wall thickness, end-systolic and end-diastolic LV size and volume, LV ejection fraction” value in assay [2] (3 and 6 mg/kg i.v. three times a week at end of hemodialysis session, preliminary ANOVA analysis) is given as “useful for treating the signs of LVH”. The “progression of the signs of LVH, points (a)-(c), in the treated group respect to its base line” value in assay [2] (T26 vs T0, 3 and 6 mg/kg i.v. three times a week, control group signs worsened) is on record as “able to reduce the progression of the signs of LVH”. The “magnitude of decompensated eccentric hypertrophy produced by myocardial infarction” value in assay [3] was “reduces the magnitude of decompensated eccentric hypertrophy”.
